System: Magel2-null mice
Assay: Effect of HU-671 on preventing bone loss in female Magel2 mice (μCT of distal femoral metaphysis)
Format: in vivo
Settings: 0.5 mg/kg IP daily for 6 weeks
Procedure: The effect of HU-671 on preventing bone loss in female Magel2 mice and their littermates as controls was tested. Forty (40) 6-week old female mice were treated daily with HU-671 (0.5 mg/kg, IP) for a period of 6 weeks. Twenty-four (24) hours following the last administration of HU-671, a complete structural analysis of the trabecular and cortical bone in the distal femoral metaphysis was performed. The femora were fixed in phosphate buffered formalin for 48 hours and further kept at 70% ethanol. They were examined by a micro computed tomography (μCT) system. Scans were performed at 20-μm resolution in all three spatial dimensions. The mineralized tissues were differentially segmented by a global thresholding procedure.

With `CCCCCCCC/C=C\CCCCCCCC(=O)NC(C)(CO)C(=O)O` (racemic) [HU-671, N-oleoyl α-methyl-DL-serine] the “Tb.N (trabecular number)” value was “increasing”, the “Tb.Th (trabecular thickness)” value was “enhancing” and the “bone volume density (BV/TV)” value was “stimulated increase”. The “connectivity density in the trabecular bone (Conn.D)” value was “significantly rescued”, the cortical parameters was “improved” and the “reduction in Cort.Th (cortical thickness)” value was “completely prevent”. The trabecular bone loss (vs vehicle-treated) was “completely prevented”.

From patent publication US11058652B2, “Methods for treatment of Prader-Willi syndrome” (Yissum Research Development Company of the Hebrew …, priority 2016, dated 2021)
